Consider 14 molecules from patent publication US5422350A, “Nitrogen substituted acridine and cytochrome P450 inhibitors and methods of use” (priority 1992, dated 1995).

In data set [1] the test system is P450 1A2. Nature of the data set: in vitro. To be noted: for 1-hydroxytacrine equivalents irreversibly bound to 1 mg microsomal protein: 1-hydroxytacrine 0.5 μM. The method, then:
(§1) PHARMACOL., Vol. 42, pp. 767-772 (1990) was conducted. […] The effect of various enoxacin concentrations (8, 20, and 50 μM) on the extent of irreversible binding was examined in a separate study.

A short description of data set [2]: Clinical drug interaction study, tacrine with cimetidine. In kind it is in vivo, human. The conditions noted are these: 40 mg tacrine with 300-mg four times a day cimetidine vs tacrine alone. The text has this:
A. Somogyi and M. Muirhead, "Pharmacokinetic Interactions of Cimetidine", CLIN. PHARMACOKIN., Vol. 12, pp. 321-366 (1987).

Data set [3] can be described thus: Single-dose pharmacokinetic and metabolic disposition study of [14C]tacrine HCl in human male volunteers. Type of data set: in vivo. To be noted: for mean AUC(O-tldc), dose proportionality: 10 and 40 mg oral, plasma. The method, then: Plasma and red blood cells (RBC) were collected predose and for 48 hours postdose. Urine and feces were collected predose and for 96 hours postdose. Urine and plasma samples were analyzed directly by liquid scintillation spectrometry while RBC and fecal samples were solubilized prior to counting. […] Metabolic profiling of urine was performed by HPLC radioactivity detection. Metabolites were identified by HPLC/photodiode array/mass spectrometry.

Data set [4] can be described thus: Irreversible protein binding of 14C-tacrine-derived radioactivity, human liver microsomes. The conditions noted are these: for effect on irreversible protein binding / Tacrine equivalents irreversibly bound to 1 mg microsomal protein: Human Prep B, 60 min; for Tacrine equivalents irreversibly bound to 1 mg microsomal protein: N = 3. The method, then:
(§2) Total reaction volume was 3 mL. Reactions were stopped by freezing in liquid nitrogen or dry-ice acetone. […] D. J. Waxman and L. Axaroff, "Phenobarbital induction of cytochrome P-450 Gene Expression", BIOCHEM J, Vol. 281, pp. 577-592 (1992); P. Soucek and I. Gut, supra.
(§3) C. N. Martin and R. C. Garner: "Covalent Binding In Vitro and In Vivo" in BIOCHEMICAL TOXICOLOGY: A PRACTICAL APPROACH, Eds. K. Snell and B. Mullock, IRL, Wash. D.C. pp. 109-126 (1987).

Data set [5] has as its system ethoxyresorufin O-deethylase. The conditions noted are these: rat liver microsomes, Back et al. (1983); cited from earlier work. In general terms: Liver microsomes are vesicles of endoplasmic reticulum, rich in cytochrome P450 enzymes.
The test system of data set [6] is P450 1A2. To be noted: cited from earlier work.
Data set [7] has as its target T1, P450 1A2 (Homo sapiens, UniProt P05177).
T1 sequence (P05177 2-516 limits assumed): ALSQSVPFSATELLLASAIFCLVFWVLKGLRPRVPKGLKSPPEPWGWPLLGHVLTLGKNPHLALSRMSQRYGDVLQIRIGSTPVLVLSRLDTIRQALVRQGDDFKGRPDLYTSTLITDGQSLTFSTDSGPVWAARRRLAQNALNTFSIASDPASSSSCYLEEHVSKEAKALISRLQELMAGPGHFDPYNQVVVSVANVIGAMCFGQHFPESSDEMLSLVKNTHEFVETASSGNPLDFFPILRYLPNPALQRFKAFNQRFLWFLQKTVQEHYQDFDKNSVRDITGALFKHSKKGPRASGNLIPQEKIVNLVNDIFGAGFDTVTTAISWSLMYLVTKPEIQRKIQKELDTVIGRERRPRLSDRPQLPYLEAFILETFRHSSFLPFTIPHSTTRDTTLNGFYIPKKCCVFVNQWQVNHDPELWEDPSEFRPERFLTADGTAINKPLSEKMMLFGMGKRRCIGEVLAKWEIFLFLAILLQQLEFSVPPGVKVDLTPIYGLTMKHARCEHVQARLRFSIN
Briefly: in vitro. The method, then:
as §1

Data set [8] has as its system hepatocytes from MC induced male rats. Nature of the data set: Irreversible binding of 14C-tacrine and 14C-1-hydroxytacrine in MC induced rat hepatocytes. In kind it is in vitro ADME. To be noted: for inhibition of irreversible binding for both tacrine and 1-hydroxytacrine: relative ranking.
Data set [9] is described as follows: Irreversible protein binding of 14C-tacrine-derived radioactivity, rat liver microsomes. The conditions noted are these: for effect on irreversible protein binding / Tacrine equivalents irreversibly bound to 1 mg microsomal protein: MC induced Rat, 60 min; for Tacrine equivalents irreversibly bound to 1 mg microsomal protein: N = 3; for effect of pretreatment on binding: rat. How it is done: as §2, §3

Data set [10] is described as follows: In vitro metabolism of 14C-tacrine in rat liver microsomes. The conditions noted are these: microsomes from pretreated rats vs control. How it is done: as §2
[11] abbreviates: 20 min, read-out: inhibition of 1-hydroxytacrine irreversible binding.
Setting [12] is: 20 min, read-out: inhibition of tacrine irreversible binding.
Where [13] appears, read: 1-hydroxytacrine 10 uM + inhibitor 50 uM.
Where [14] appears, read: tacrine 10 uM + inhibitor 50 uM.

Where two headings read alike, the source gives them in different places.

Consider `Nc1c2c(nc3ccccc13)CCCC2O` (stereo not shown) [1-Hydroxytacrine, 1-hydroxytacrine], for which the “irreversible binding to human microsomal protein” value with P450 1A2 [1] (1-hydroxytacrine) is recorded as “found to bind irreversibly”. In the data set with P450 1A2 [1] (enoxacin 0.0, 20 min), the “1-hydroxytacrine equivalents irreversibly bound to 1 mg microsomal protein” value is given as 0.018 ± 0.001. Further, in the data set on P450 1A2 [1] (Table 6, deletion of NADPH), the “irreversible binding of derived radioactivity to microsomal protein” value is “no irreversible”. Moreover, the higher plasma concentrations result in data set [2] is reported as “approximately 40%”. Besides, in data set [3], the “mean AUC(O-tldc), dose proportionality” value is “increased greater than dose proportionally”. For the same molecule, in data set [3] (all volunteers), the “elimination rate from plasma” value is “appeared to be limited by the rate of formation”. The “excretion and 1-hydroxytacrine plasma concentrations in cigarette smokers” value in data set [3] (smokers compared to nonsmokers) is “decreased excretion and lower 1-hydroxytacrine plasma concentrations”.
On to `Nc1c2c(nc3ccccc13)CCC(O)C2` (stereo not shown) [2-hydroxytacrine], for which the “mean AUC(O-tldc), dose proportionality” value in data set [3] is recorded as “increased greater than dose proportionally”.
Turning to `Nc1c2c(nc3ccc(O)cc13)CCCC2` [7-Hydroxytacrine, 7-hydroxytacrine], in data set [4] (time course through 1 hour), the levels over time result is on record as “levels rise then fall over time”.
Take `CCN(CC)CCCC(C)Nc1ccnc2cc(Cl)ccc12` (stereo not shown) [Chloroquine, 7-chloro-4-(4-diethylamino-1-methylbutylamino)quinoline]: the “inhibition of ethoxyresorufin O-deethylase activity” value in [5] is reported as “inhibitors of ethoxyresorufin O-deethylase activity”.
As to `CN/C(=N/CCSCc1nc[nH]c1C)NC#N` [Cimetidine, N-cyano-N'-methyl-N"-[2[[(5-methyl-1H-imidazol-4-yl)methyl]thio]ethyl]guanidine], the “inhibition of P450 enzymes including P450 1A2” value in the data set with P450 1A2 [6] is “inhibitor of P450 enzymes including P450 1A2”.
For `CCn1cc(C(=O)O)c(=O)c2cc(F)c(N3CCNCC3)nc21` [Enoxacin], the “P450 1A2 inhibition” value in the data set with P450 1A2 [6] was “selective inhibitor of P450 1A2”. Moreover, the “inhibition of tacrine irreversible binding and biotransformation” value at P450 1A2 [7] (50 μM enoxacin vs 8, 20 μM) is on record as “greatest inhibition”. The inhibition (usually how much of the control response was suppressed) at 8 µM on P450 1A2 [7] (setting [11]) was found to be 8.2%; at P450 1A2 [7] (setting [12]), 14.4%. Besides, the inhibition at 20 µM at P450 1A2 [7] (setting [11]) stood at 22.2%; at P450 1A2 [7] (setting [12]), 29.8%. Further, the figures for the inhibition at 50 µM at P450 1A2 [7] (setting [11]), on P450 1A2 [7] (setting [12]) and on P450 1A2 [7] (read-out: inhibition of extent of irreversible binding (maximum)) were 51.7%, 43.4% and at most 73%, respectively. Besides, on P450 1A2 [7] (enoxacin 8, 20, 50 μM), the “effect on the binding of 1-hydroxytacrine” value is recorded as “inhibitory effect”. The “1-hydroxytacrine equivalents irreversibly bound to 1 mg microsomal protein” value with P450 1A2 [1] (enoxacin 8.0, 20 min) is on record as 0.017 ± 0.001; with P450 1A2 [1] (enoxacin 20.0, 20 min), 0.014 ± 0.001; with P450 1A2 [1] (enoxacin 50.0, 20 min) it was 0.009 ± 0.001. Also, the “Tacrine equivalents irreversibly bound to 1 mg microsomal protein” value came out at 0.023 ± 0.002 in the data set on P450 1A2 [1] (Table 6, tacrine 0.3 μM, line below enoxacin 50.0 (concentration not given), 20 min); 0.036 ± 0.008 in the data set with P450 1A2 [1] (Table 6, tacrine 0.3 μM, line of enoxacin 20.0, 20 min); 0.028 ± 0.001 in the data set on P450 1A2 [1] (Table 6, tacrine 0.3 μM, line of enoxacin 50.0, 20 min); 0.009 ± 0.002 nmol with P450 1A2 [1] (tacrine 0.5 μM + enoxacin 50 μM, 5 min); 0.017 ± 0.003 nmol in the data set on P450 1A2 [1] (tacrine 0.5 μM + enoxacin 50 μM, 10 min); 0.026 ± 0.002 nmol in the data set on P450 1A2 [1] (tacrine 0.5 μM + enoxacin 50 μM, 20 min). The “Tacrine equivalents irreversibly bound to 1 mg microsomal protein” value in the data set with P450 1A2 [1] (tacrine 0.5 μM + enoxacin 50 μM, 45 min) turned out to be 0.052 ± 0.006 nmol. For the same molecule, in data set [8] (setting [13]), the “irreversible binding of 1-hydroxytacrine-derived radioactivity, Percent Control Value” came out at 79.8%. The “inhibition of irreversible binding for both tacrine and 1-hydroxytacrine” value in [8] was “less of an effect”. Also, the “irreversible binding of tacrine-derived radioactivity, Percent Control Value” in data set [8] (setting [14]) worked out at 78.9%.
As to `CCn1cnc(C(=O)NC)c1C(=O)NC` [Ethimizol], the “irreversible binding of 1-hydroxytacrine-derived radioactivity, Percent Control Value” in [8] (setting [13]) is given as 65.6%. For the same molecule, in [8], the “inhibition of irreversible binding for both tacrine and 1-hydroxytacrine” value is on record as “less of an effect”. In data set [8] (setting [14]), the “irreversible binding of tacrine-derived radioactivity, Percent Control Value” was 80.1%.
The matching figures for `Cc1nc2c([nH]1)c(=O)n(C)c(=O)n2Cc1ccco1` [Furafylline, 1H-purine-2,6-dione, 3-(2-furanylmethyl)-3,7-dihydro-1,8-dimethyl]: 31.7%, “most effective inhibitor” and 31.6%.
`N[C@@H](CCC(=O)N[C@@H](CS)C(=O)NCC(=O)O)C(=O)O` [Glutathione]: the “irreversible binding of 1-hydroxytacrine-derived radioactivity, Percent Control Value” in data set [8] (1-hydroxytacrine 10 uM + glutathione 5 mM) is listed as 49.1%. Besides, the “irreversible binding of tacrine-derived radioactivity, Percent Control Value” in data set [8] (tacrine 10 uM + glutathione 5 mM) stood at 62.6%. Moreover, in data set [9] (with GSH (5 mM)), the “effect on irreversible protein binding” value worked out at 58.3 and the “Tacrine equivalents irreversibly bound to 1 mg microsomal protein” value was 0.058 ± 0.005 nmol. Also, in data set [4], the “detectable adducts with the reactive intermediate” value is on record as “failed to produce detectable adducts” and the “effect on irreversible binding” value was “dramatic reduction in irreversible binding”. Also, in data set [4] (with GSH (5 mM)), the “effect on irreversible protein binding” value is 85.0 and the “Tacrine equivalents irreversibly bound to 1 mg microsomal protein” value was determined as 0.031 ± 0.001 nmol.
Take `NNC(=O)c1ccncc1` [Isoniazid]: the “effect of pretreatment on binding” value in data set [9] is recorded as “little or no effect on binding”. Also, the “effect of pretreatment (induction) on 1-hydroxytacrine formation” value (from here on “effect of pretreatment (induction)”) in data set [10] is “markedly increased 1-hydroxytacrine formation”.
In the case of `Cc1ccc2cc3c(ccc4ccccc43)c3c2c1CC3` [MC, 3-methylcholanthrene], in data set [9] (MC induced rat), the “increase in binding compared to control rat” value is recorded as around 3 fold. Also, the “effect of pretreatment (induction)” value in data set [10] is given as “Less 1-hydroxytacrine was observed”.
`CCC1(c2ccccc2)C(=O)NC(=O)NC1=O` [Phenobarbital]: the “effect of pretreatment on binding” value in data set [9] is recorded as “little or no effect on binding”. In addition, the “effect of pretreatment (induction)” value in data set [10] is “only a minimal effect on 1-hydroxytacrine formation”.
On to `COc1cc(NC(C)CCCN)c2ncccc2c1` (stereo not shown) [Primaquine, 8-(4-amino-1-methylbutylamino)-6-methoxyquinoline], for which, in data set [5], the “inhibition of ethoxyresorufin O-deethylase activity” value is “inhibitors of ethoxyresorufin O-deethylase activity”.

B1: EH: human liver expoxide hydrase (EH) (protein, UniProt P07099 1-455, looked up)
Epoxide hydrolase 1: MWLEILLTSVLGFAIYWFISRDKEETLPLEDGWWGPGTRSAAREDDSIRPFKVETSDEEIHDLHQRIDKFRFTPPLEDSCFHYGFNSNYLKKVISYWRNEFDWKKQVEILNRYPHFKTKIEGLDIHFIHVKPPQLPAGHTPKPLLMVHGWPGSFYEFYKIIPLLTDPKNHGLSDEHVFEVICPSIPGYGFSEASSKKGFNSVATARIFYKLMLRLGFQEFYIQGGDWGSLICTNMAQLVPSHVKGLHLNMALVLSNFSTLTLLLGQRFGRFLGLTERDVELLYPVKEKVFYSLMRESGYMHIQCTKPDTVGSALNDSPVGLAAYILEKFSTWTNTEFRYLEDGGLERKFSLDDLLTNVMLYWTTGTIISSQRFYKENLGQGWMTQKHERMKVYVPTGFSAFPFELLHTPEKWVRFKYPKLISYSYMVRGGHFAAFEEPELLAQDIRKFLSVLERQ
As to B1, the “effect on irreversible protein binding” value in data set [9] (with EH (100 ug)) was found to be 16.6; in data set [4] (with EH (100 ug)), 35.3. Besides, the “Tacrine equivalents irreversibly bound to 1 mg microsomal protein” value in data set [9] (with EH (100 ug)) is 0.116 ± 0.007 nmol; in data set [4] (with EH (100 ug)), 0.134 ± 0.026 nmol. Further, in data set [4], the “detectable adducts with the reactive intermediate” value was “failed to produce detectable adducts”. Moreover, the “effect on irreversible binding” value in [4] (14C tacrine incubations (Table 3, human and rat)) is given as “only a slight decrease in binding”.
